Assay results: US20170295783A1, “COMPOSITIONS AND METHODS TO SELECTIVELY CONTROL SPECIES” (STEPHEN F. AUSTIN STATE UNIVERSITY, priority 2014, published 2017)

Experiments:
[1] = system: human tumor cells or normal cells; settings: Li, et al., 2013; cited from earlier work
T. sebifera seedlings = experiment: Droplet test and foliar spray of fractions on Chinese tallow seedlings; design: species or system Triadica sebifera; settings: in vivo
Text: The leaf surfaces of the experimental plants were checked daily for two weeks by a ×60 portable microscope linked to an iPhone™.

Giant Salvinia = experiment: Leaf-blade droplet bioassay on giant salvinia; type: in vivo, Salvinia molesta; settings: for Activity against Giant Salvinia: 8 μL of 1% solution on lower leaf surface
Description: The three plants in the first container served as control without any treatment, three plants in the second container were treated with 1% DMSO, three plants in the third container were treated with 5% DMSO, three plants in the fourth container were treated with 0.5% Dyne-Amic®, and the plants in each of the other four containers were treated with each of the four testing isolates, respectively. For each of the three plant in the 0.5% Dyne-Amic® treatment, 8 μL of 0.5% Dyne-Amic® was applied on the lower surface of each of the two mature leaf blades close to the terminal bud by pipet and 8 μL of 0.5% Dyne-Amic® was applied on the upper surface (with trichomes) of each of the two other mature leaf blades close to the terminal bud by pipet. For all three plants in each of the DMSO or testing isolates treatment containers, 8 μL of each experimental solution was applied on the lower surface of each of the two mature leaf blades close to the terminal bud by pipet.

A. palmeri = experiment: Leaf droplet bioassay on A. palmeri seedlings; type: in vivo, Amaranthus palmeri; settings: 10 μL 0.5% glyphosate
Description: Bioassays: The experimental plants were 3-week-old A. palmeri seedlings germinated from the seeds collected from the above described glyphosate-resistant plants. The seedlings were grown in pots with Miracle Grow Potting Mix soil in the greenhouse (30° C. during the day time and 20° C. at night). The intact seedling plants of 3-week old Q. texana and 2-month-old L. styraciflua grown in pots in greenhouse were also tested in this experiment. […] The leaf surfaces of the experimental plants were checked daily for two weeks by a ×60 portable microscope linked to an iPhone™.

| Structure (SMILES) | cytotoxicity against human tumor cells or normal cells [1] | Activity against Giant Salvinia (Giant Salvinia) | leaf injury during the two weeks of observation (Giant Salvinia; 8 μL/leaf, 1% solution) | other results |
| --- | --- | --- | --- | --- |
| CC(=O)/C=C/[C@H]1C(C)=C[C@H](O)CC1(C)C | did not show any cytotoxicity | – | – | – |
| COc1c(OC)c(OC)c2oc(=O)ccc2c1OC [5,6,7,8-Tetramethoxycoumarin, 5,6,7,8-tetramethoxycoumarin] | – | – | – | endocidal activity in the droplet test (T. sebifera seedlings): showed endocidal activity |
| CC(=O)/C=C/C1=C(C)C[C@@H](O)CC1(C)C [compound 1, (+)-3-Hydroxy-β-ionone] | did not show any cytotoxicity | Potent activity | – | leaves dead by the end of experiment (of six) (Giant Salvinia; 8 μL/leaf, 1% solution): two leaves were dead; time to significant injury of the six treated leaf blades (Giant Salvinia; 8 μL/leaf, 1% solution, lower surface): ≤ 12 h; time to death of lower surface contact tissues (FIG. 1) (Giant Salvinia; applied on the lower surface of the leaf blade): ≤ 12 h |
| CC(=O)/C=C/[C@H]1C(C)=C[C@H](O)CC1(C)C [compound 2, (3R,6R,7E)-3-hydroxy-4,7-megastigmadien-9-one] | – | Weak activity | no or slight injury | – |
| CC(=O)/C=C/[C@@]12O[C@]1(C)C[C@@H](O)CC2(C)C [compound 3, Annuionone D] | did not show any cytotoxicity | No activity | no or slight injury | – |
| CC(=O)/C=C/[C@@]1(O)C(C)=CC(=O)CC1(C)C [compound 4, Dehydrovomifoliol] | did not show any cytotoxicity | No activity | no or slight injury | – |
| O=C(O)CNCP(=O)(O)O [glyphosate] | – | – | – | leaf injury (A. palmeri): no injury |
